From patent US20250280696A1, “FORMULATIONS AND USES THEREOF IN OPTOELECTRONIC FIELD” (Zhejiang Brilliant Optoelectronic Technology Co.,Ltd., priority 2022, published 2025)

Tests used:
Assay type in all cases: physicochemical
[1] = Absorption and emission spectrum in spin-coated film; details: for Red shift of the spectrum in the film relative to the solution: film vs toluene solution; for Emission peak of the film / Absorption peak of the film: spin-coated film on glass
Experimental: The Absorption and emission spectrums of the compounds in the film were determined as follows: • 1. The compound with a certain concentration in the toluene was prepared. • 2. The prepared toluene solution was dropped onto a clean glass substrate. • 3. Spin-coating, and then heating at the 80° C. for 1 min. • 4. The absorption spectrum of the film was measured by using an ultraviolet-visible spectrophotometer (Puxi T9s) to obtain the absorption peak wavelength. • 5. The emission spectrum of the film was measured by using a fluorescent spectroscope (Hitachi, F-4700 FL Spectrophotometer) to obtain the emission peak wavelength.
(§1) The extinction coefficients of the compounds and their absorption and emission peaks in the solution and film are shown in Table 3.

[2] = Absorption spectrum, emission spectrum and extinction coefficient in toluene solution; details: for Molar extinction coefficient of the toluene solution: at maximum absorption peak
Experimental: The extinction coefficients of the compounds and their absorption and emission spectrums in the solution were determined as follows: • 1. The compound with a certain amount of substance concentration in the toluene was prepared in a volumetric flask. • 2. The absorption spectrum of the solution was measured by using an ultraviolet-visible spectrophotometer (Puxi T9s) to obtain the absorption peak wavelength. • 3. The absorbance of the maximum absorption peak divided by the amount of substance concentration is the molar extinction coefficient of the compound. • 4. The emission spectrum of the solution was measured by using a fluorescent spectroscope (Hitachi, F-4700 FL Spectrophotometer) to obtain the emission peak wavelength.
as §1

[3] = UV stability of compounds in toluene (absorbance decay, t80); details: for Times t80: UV LEDs 365 nm & 255 nm, 12 cm, time until absorbance decayed to 80% of initial value
Experimental: The UV stability of the compounds were tested as follows:
The compound was dissolved in the toluene with a concentration of 1×10^5 mol/L. 3 mL solution was added to the cuvette with a lid and the lid was screwed on tightly, then the cuvette was placed in the ultraviolet-visible spectrophotometer to test the absorption spectrum, the absorbance of the maximum absorption peak was recorded as the initial value. The cuvette was placed at a distance of 12 cm from the UV LEDs (365 nm & 255 nm), irradiated for a period and tested its absorption spectrum, then continued to be irradiated after the test, and repeated until the absorbance decayed to 80% of its initial value, the time was recorded as t80.

[4] = Solubility of compounds in toluene; details: per 100 g toluene
Experimental: The solubility of the compounds in the toluene were determined as follows: • 1. 1000 mg toluene was placed in the transparent glass sample bottle. • 2. A certain mass of the compound was added into the toluene, and oscillated until completely dissolved. • 3. After the compound was completely dissolved, a certain mass of the compound was further added into the toluene, and oscillated. • 4. The above steps were repeated until the compound wasn't dissolved any more. • 5. The total mass of the compound added was recorded and the solubility was obtained by calculation.

Row | Compound | Red shift of the spectrum in the film relative to the solution [1] | Molar extinction coefficient of the toluene solution [2] | Times t80 [3] | Solubilities(/100 g toluene) [4] | Emission peak of the film [1] | Absorption peak of the film [1] | Absorption peak of the toluene solution [2] | Emission peak of the toluene solution [2] | UV stability compared with the unfluorinated compound 20 ([3]; UV irradiation)
1 | CCc1cccc(CC)c1N(c1ccc(C(C)(C)C)cc1)c1cc(N(c2ccc(C(C)(C)C)cc2)c2c(CC)cccc2CC)c2ccc3c(N(c4ccc(C(C)(C)C)cc4)c4c(CC)cccc4CC)cc(N(c4ccc(C(C)(C)C)cc4)c4c(CC)cccc4CC)c4ccc1c2c43 [Compound 11] | very small red shift | 53000 L/mol | 257 min | 25.9 g | – | – | – | – | –
2 | CCCCCCCCc1ccc(-c2cc(C(C)C)ccc2N(c2cc(F)c(F)c(F)c2)c2cc(N(c3cc(F)c(F)c(F)c3)c3ccc(C(C)C)cc3-c3ccc(CCCCCCCC)cc3)c3ccc4c(N(c5cc(F)c(F)c(F)c5)c5ccc(C(C)C)cc5-c5ccc(CCCCCCCC)cc5)cc(N(c5cc(F)c(F)c(F)c5)c5ccc(C(C)C)cc5-c5ccc(CCCCCCCC)cc5)c5ccc2c3c54)cc1 [Compound 22] | very small red shift | 59000 L/mol | 377 min | >15 g | 490 nm | – | – | – | –
3 | c1ccc(N(c2ccccc2)c2cc(N(c3ccccc3)c3ccccc3)c3ccc4c(N(c5ccccc5)c5ccccc5)cc(N(c5ccccc5)c5ccccc5)c5ccc2c3c54)cc1 [Compound 20] | large red shift | 23000 L/mol | 188 min | >1.5 g | 561 nm | 482 nm | 465 nm | 488 nm | –
4 | Fc1cccc(F)c1N(c1ccccc1)c1cc(N(c2ccccc2)c2c(F)cccc2F)c2ccc3c(N(c4ccccc4)c4c(F)cccc4F)cc(N(c4ccccc4)c4c(F)cccc4F)c4ccc1c2c43 [Compound 17] | large red shift | 18000 L/mol | – | >1 g | 496 nm | 445 nm | 439 nm | 462 nm | greatly improved
5 | Cc1cccc(C)c1N(c1ccc(C(C)(C)C)cc1)c1cc(N(c2ccc(C(C)(C)C)cc2)c2c(C)cccc2C)c2ccc3c(N(c4ccc(C(C)(C)C)cc4)c4c(C)cccc4C)cc(N(c4ccc(C(C)(C)C)cc4)c4c(C)cccc4C)c4ccc1c2c43 [Compound 4] | very small red shift | 30000 L/mol | 195 min | 4.2 g | – | – | – | – | –
